Assay results as given in patent US6737383B1, “Herbicidal oxadiazolidines” (priority 1999, dated 2004).

Tests used:
soybean = assay: Test B pre/postemergence soybean; assay type: in vivo, Glycine max; details: for Plant response rating, Soybean: scale of 0 to 10 where 0 is no effect and 10 is complete control
Procedure, shortened: (§1)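 Herbicidal effect was estimated by eye on a ten-point control scale after plants spent twelve to sixteen days in a greenhouse following soil or foliar treatment. Foliar sprays targeted plants at one to four leaves; all doses were formulated in a non-phytotoxic solvent with surfactant.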

giant foxtail = assay: Test B pre/postemergence giant foxtail; assay type: in vivo, Setaria faberii; details: for Plant response rating, Giant foxtail: scale of 0 to 10 where 0 is no effect and 10 is complete control
Procedure, shortened: as §1

cocklebur = assay: Test B pre/postemergence cocklebur; assay type: in vivo, Xanthium strumarium; details: for Plant response rating, Cocklebur: scale of 0 to 10 where 0 is no effect and 10 is complete control
Procedure, shortened: as §1

rape = assay: Test B pre/postemergence rape; assay type: in vivo, Brassica napus; details: for Plant response rating, Rape: scale of 0 to 10 where 0 is no effect and 10 is complete control
Procedure, shortened: as §1

surinam grass = assay: Test B pre/postemergence surinam grass; assay type: in vivo, Brachiaria decumbens; details: for Plant response rating, B. signalgrass: scale of 0 to 10 where 0 is no effect and 10 is complete control
Procedure, shortened: as §1

sugar beet = assay: Test B pre/postemergence sugar beet; assay type: in vivo, Beta vulgaris; details: for Plant response rating, Sugarbeets: scale of 0 to 10 where 0 is no effect and 10 is complete control
Procedure, shortened: as §1

wild oat = assay: Test B pre/postemergence wild oat; assay type: in vivo, Avena fatua; details: for Plant response rating, Wild oats: scale of 0 to 10 where 0 is no effect and 10 is complete control
Procedure, shortened: as §1

morningglory = assay: Test B pre/postemergence morningglory; assay type: in vivo, Ipomoea hederacea; details: for Plant response rating, Morningglory: scale of 0 to 10 where 0 is no effect and 10 is complete control
Procedure, shortened: as §1

velvetleaf = assay: Test B pre/postemergence velvetleaf; assay type: in vivo, Abutilon theophrasti; details: for Plant response rating, Velvetleaf: scale of 0 to 10 where 0 is no effect and 10 is complete control
Procedure, shortened: as §1

blackgrass = assay: Test B pre/postemergence blackgrass; assay type: in vivo, Alopecurus myosuroides; details: for Plant response rating, Blackgrass: scale of 0 to 10 where 0 is no effect and 10 is complete control
Procedure, shortened: as §1

bedstraw = assay: Test B pre/postemergence bedstraw; assay type: in vivo, Galium aparine; details: for Bedstraw plant response rating: scale 0 to 10 (0 no effect, 10 complete control); for Plant response rating, Bedstraw: scale of 0 to 10 where 0 is no effect and 10 is complete control
Procedure, shortened: as §1

pigweed = assay: Test B pre/postemergence pigweed; assay type: in vivo, Amaranthus retroflexus; details: for Plant response rating, Redroot pigweed: scale of 0 to 10 where 0 is no effect and 10 is complete control
Procedure, shortened: as §1

wheat = assay: Test B pre/postemergence wheat; assay type: in vivo, Triticum aestivum; details: for Plant response rating, Wheat: scale of 0 to 10 where 0 is no effect and 10 is complete control
Procedure, shortened: as §1

purple nutsedge = assay: Test B pre/postemergence purple nutsedge; assay type: in vivo, Cyperus rotundus
Procedure, shortened: as §1

crabgrass = assay: Test B pre/postemergence crabgrass; assay type: in vivo, Digitaria sanguinalis; details: for Plant response rating, Crabgrass: scale of 0 to 10 where 0 is no effect and 10 is complete control
Procedure, shortened: as §1

corn = assay: Test B pre/postemergence corn; assay type: in vivo, Zea mays; details: for Plant response rating, Corn: scale of 0 to 10 where 0 is no effect and 10 is complete control
Procedure, shortened: as §1

[1] = Postemergence, Rate 31 g/ha, visual rating, scale 0 to 10 (0 no effect, 10 complete control)
[2] = Postemergence, Rate 125 g/ha, scale 0 to 10, 0 is no effect, 10 is complete control
[3] = Postemergence, Rate 250 g/ha, scale 0 to 10
[4] = Preemergence, Rate 250 g/ha, scale 0 to 10, 0 is no effect, 10 is complete control
[5] = Rate 62 g/ha, Postemergence, scale 0 to 10 (0 no effect, 10 complete control)
[6] = Preemergence, Rate 31 g/ha, visual rating, scale 0 to 10 (0 no effect, 10 complete control)

CC(C)N(C(=O)n1oc(=O)n(C(C)C(=O)N(C)C)c1=O)c1ccc(F)cc1F (centres unmarked) [Compound 481]
Soybean plant response rating (soybean; [1]): 4
Soybean plant response rating (soybean; [2]): 4
Soybean plant response rating (soybean; [3]): 4
Plant response rating, Soybean (soybean; Preemergence, Rate 62 g/ha): 0
Plant response rating, Soybean (soybean; Preemergence, Rate 125 g/ha): 0
Soybean plant response rating (soybean; [4]): 0
Soybean plant response rating (soybean; [5]): 4
Giant foxtail plant response rating (giant foxtail; [1]): 0
Giant foxtail plant response rating (giant foxtail; [2]): 2
Giant foxtail plant response rating (giant foxtail; [3]): 8
Giant foxtail plant response rating (giant foxtail; [6]): 8
Plant response rating, Giant foxtail (giant foxtail; Preemergence, Rate 62 g/ha): 9
Plant response rating, Giant foxtail (giant foxtail; Preemergence, Rate 125 g/ha): 9
Giant foxtail plant response rating (giant foxtail; [4]): 9
Giant foxtail plant response rating (giant foxtail; [5]): 2
Cocklebur plant response rating (cocklebur; [1]): 0
Cocklebur plant response rating (cocklebur; [2]): 0
Cocklebur plant response rating (cocklebur; [3]): 0
Cocklebur plant response rating (cocklebur; [6]): 0
Plant response rating, Cocklebur (cocklebur; Preemergence, Rate 62 g/ha): 0
Plant response rating, Cocklebur (cocklebur; Preemergence, Rate 125 g/ha): 0
Cocklebur plant response rating (cocklebur; [4]): 0
Cocklebur plant response rating (cocklebur; [5]): 0
Rape plant response rating (rape; [1]): 0
Rape plant response rating (rape; [2]): 0
Rape plant response rating (rape; [3]): 0
Plant response rating, Rape (rape; Preemergence, Rate 62 g/ha): 0
Plant response rating, Rape (rape; Preemergence, Rate 125 g/ha): 0
Rape plant response rating (rape; [4]): 0
Rape plant response rating (rape; [5]): 0
B. signalgrass plant response rating (surinam grass; [1]): 0
B. signalgrass plant response rating (surinam grass; [2]): 0
B. signalgrass plant response rating (surinam grass; Postemergence, Rate 250 g/ha, scale 0 to 10, 0 no effect, 10 complete control): 6
B. signalgrass plant response rating (surinam grass; [6]): 7
Plant response rating, B. signalgrass (surinam grass; Preemergence, Rate 62 g/ha): 7
Plant response rating, B. signalgrass (surinam grass; Preemergence, Rate 125 g/ha): 9
B. signalgrass plant response rating (surinam grass; [4]): 9
B. signalgrass plant response rating (surinam grass; [5]): 0
Sugarbeets plant response rating (sugar beet; [1]): 0
Sugarbeets plant response rating (sugar beet; [2]): 0
Sugarbeets plant response rating (sugar beet; [3]): 0
Plant response rating, Sugarbeets (sugar beet; Preemergence, Rate 62 g/ha): 0
Plant response rating, Sugarbeets (sugar beet; Preemergence, Rate 125 g/ha): 0
Sugarbeets plant response rating (sugar beet; [4]): 2
Sugarbeets plant response rating (sugar beet; [5]): 0
Wild oats plant response rating (wild oat; [1]): 0
Wild oats plant response rating (wild oat; [2]): 0
Wild oats plant response rating (wild oat; [3]): 0
Plant response rating, Wild oats (wild oat; Preemergence, Rate 62 g/ha): 4
Plant response rating, Wild oats (wild oat; Preemergence, Rate 125 g/ha): 6
Wild oats plant response rating (wild oat; [4]): 8
Wild oats plant response rating (wild oat; [5]): 0
Morningglory plant response rating (morningglory; [1]): 0
Morningglory plant response rating (morningglory; [2]): 0
Morningglory plant response rating (morningglory; [3]): 2
Plant response rating, Morningglory (morningglory; Preemergence, Rate 62 g/ha): 0
Plant response rating, Morningglory (morningglory; Preemergence, Rate 125 g/ha): 0
Morningglory plant response rating (morningglory; [4]): 0
Morningglory plant response rating (morningglory; [5]): 0
Velvetleaf plant response rating (velvetleaf; [1]): 0
Velvetleaf plant response rating (velvetleaf; [2]): 0
Velvetleaf plant response rating (velvetleaf; [3]): 0
Plant response rating, Velvetleaf (velvetleaf; Preemergence, Rate 62 g/ha): 0
Plant response rating, Velvetleaf (velvetleaf; Preemergence, Rate 125 g/ha): 0
Velvetleaf plant response rating (velvetleaf; [4]): 0
Velvetleaf plant response rating (velvetleaf; [5]): 0
Blackgrass plant response rating (blackgrass; [1]): 0
Blackgrass plant response rating (blackgrass; [2]): 0
Blackgrass plant response rating (blackgrass; [3]): 2
Blackgrass plant response rating (blackgrass; [6]): 3
Plant response rating, Blackgrass (blackgrass; Preemergence, Rate 62 g/ha): 6
Plant response rating, Blackgrass (blackgrass; Preemergence, Rate 125 g/ha): 6
Blackgrass plant response rating (blackgrass; [4]): 10
Blackgrass plant response rating (blackgrass; [5]): 0
Bedstraw plant response rating (bedstraw; Preemergence, Rate 31 g/ha, visual rating): 0
Plant response rating, Bedstraw (bedstraw; Preemergence, Rate 62 g/ha): 0
Plant response rating, Bedstraw (bedstraw; Preemergence, Rate 125 g/ha): 0
Bedstraw plant response rating (bedstraw; Rate 62 g/ha, Postemergence): 0
Redroot pigweed plant response rating (pigweed; [1]): 0
Redroot pigweed plant response rating (pigweed; [2]): 0
Redroot pigweed plant response rating (pigweed; [3]): 0
Plant response rating, Redroot pigweed (pigweed; Preemergence, Rate 62 g/ha): 0
Plant response rating, Redroot pigweed (pigweed; Preemergence, Rate 125 g/ha): 0
Redroot pigweed plant response rating (pigweed; [4]): 3
Redroot pigweed plant response rating (pigweed; [5]): 0
Wheat plant response rating (wheat; [1]): 0
Wheat plant response rating (wheat; [2]): 0
Wheat plant response rating (wheat; [3]): 0
Plant response rating, Wheat (wheat; Preemergence, Rate 62 g/ha): 0
Plant response rating, Wheat (wheat; Preemergence, Rate 125 g/ha): 3
Wheat plant response rating (wheat; [4]): 2
Wheat plant response rating (wheat; [5]): 0
Nutsedge plant response rating (purple nutsedge; [1]): 0
Nutsedge plant response rating (purple nutsedge; [3]): 0
Plant response rating, Nutsedge (purple nutsedge; Preemergence, Rate 125 g/ha, scale of 0 to 10 where 0 is no effect and 10 is complete control): 4
Nutsedge plant response rating (purple nutsedge; [4]): 6
Nutsedge plant response rating (purple nutsedge; [5]): 0
Crabgrass plant response rating (crabgrass; [1]): 0
Crabgrass plant response rating (crabgrass; [2]): 2
Crabgrass plant response rating (crabgrass; [3]): 2
Crabgrass plant response rating (crabgrass; [6]): 7
Plant response rating, Crabgrass (crabgrass; Preemergence, Rate 62 g/ha): 7
Plant response rating, Crabgrass (crabgrass; Preemergence, Rate 125 g/ha): 8
Crabgrass plant response rating (crabgrass; [4]): 8
Crabgrass plant response rating (crabgrass; [5]): 0
Corn plant response rating (corn; [1]): 0
Corn plant response rating (corn; [2]): 3
Corn plant response rating (corn; [3]): 3
Corn plant response rating (corn; [6]): 0
Plant response rating, Corn (corn; Preemergence, Rate 62 g/ha): 0
Plant response rating, Corn (corn; Preemergence, Rate 125 g/ha): 0
Corn plant response rating (corn; [4]): 0
Corn plant response rating (corn; [5]): 0
